From article PMC12608337 (Molecules, 2025)

Columns and labels:
[1] = system: Spodoptera littoralis; details: cited from earlier work
[2] = system: wt-YFV; assay type: cell-based, yellow fever virus
[3] = in vitro; details: African green monkey (Cercopithecus aethiops)
[4] = system: herpes simplex virus (type 1); details: cited from earlier work
[5] = system: dengue virus type 2 (DENV-2); details: cited from earlier work
[6] = system: Zika virus (ZIKV); details: cited from earlier work
[7] = system: ZIKV; details: mouse, in vivo; cited from earlier work

SMILES | antiviral activity against wt-YFV [2] | CC50 [3] [mM] | other results
COc1cc2c(cc1OC)[C@@H]1[C@H](O)[C@@H](OC)[C@H](OC(C)=O)C3=CCN(C2)[C@H]31 [3-O-acetyl-narcissidine, 3-O-acetylnarcissidine] | – | – | antifeedant effect [1]: exhibited an antifeedant effect
COc1c2c(cc3c1OCO3)[C@@]13CCN(C2)[C@@H]1CC[C@H](O)[C@@H]3O [Bulbisine, bulbisine] | did not reveal significant antiviral activity | 0.123 | –
C[n+]1cccc(C(=O)[O-])c1 [Trigonelline, trigonelline] | did not reveal significant antiviral activity | ~1 | inhibition of survival of herpes simplex virus (type 1) [4]: significantly inhibited the survival
N=C(N)NCCC[C@H](N)C(=O)O [arginine] | did not reveal significant antiviral activity | ~1 | –
NC(=O)C[C@H](N)C(=O)O [asparagine] | did not reveal significant antiviral activity | ~1 | –
N[C@@H](CCC(=O)O)C(=O)O [glutamic acid] | did not reveal significant antiviral activity | – | –
O[C@H]1[C@H]2c3cc4c(cc3CN3CCC(=C[C@@H]1O)[C@H]23)OCO4 [lycorine] | – | – | antiviral activity against DENV-2 [5]: exhibits antiviral activity; antiviral activity against ZIKV [6]: exhibits antiviral activity; mortality [7]: reduced mortality; viral load in the blood [7]: lower viral load in the blood
N[C@@H](Cc1c[nH]c2ccccc12)C(=O)O [tryptophan] | did not reveal significant antiviral activity | 0.578 | –
